Key:
crabgrass = test: Test A crabgrass; format: in vivo, Digitaria spp.; details: 0 to 10 scale where 0 is no effect and 10 is complete control
Method in brief: (§1)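 Visual injury score, 0 (no effect) to 10 (complete control), vs untreated controls at ~11 d in greenhouse. Pre: soil drench on sandy loam. Post: spray to runoff, 1–2 leaf stage.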

velvetleaf = test: Test A velvetleaf; format: in vivo, Abutilon theophrasti; details: 0 to 10 scale where 0 is no effect and 10 is complete control
Method in brief: as §1

Q: `CCOC(=O)Cn1c(=O)on(C(=O)N(c2ccc(F)cc2)C(C)C)c1=O` [Compound 128] was tested. Which “Plant response rating, Crabgrass” value (crabgrass; Postemergence, Rate 1000 g/ha) did it give?
A: 0

Q: And the “Plant response rating, Crabgrass” value (crabgrass; Pre-emergence, Rate 2000 g/ha)?
A: 0

Q: What about the “Plant response rating, Velvetleaf” value (velvetleaf; Postemergence, Rate 1000 g/ha) of the same compound?
A: 0

Q: What about the “Plant response rating, Velvetleaf” value (velvetleaf; Pre-emergence, Rate 2000 g/ha) of the same compound?
A: 0

Q: Which results are given for `Cc1ccccc1Cn1c(=O)on(C(=O)N(c2ccc(Cl)cc2)C(C)C)c1=O` [Compound 136]?
A: Plant response rating, Crabgrass (crabgrass; Postemergence, Rate 1000 g/ha): 6; Plant response rating, Crabgrass (crabgrass; Pre-emergence, Rate 2000 g/ha): 10; Plant response rating, Velvetleaf (velvetleaf; Postemergence, Rate 1000 g/ha): 2; Plant response rating, Velvetleaf (velvetleaf; Pre-emergence, Rate 2000 g/ha): 0
